Measured values taken from patent US11001615B2, “Mutated tau protein fragment and use thereof” (ADEL INC., priority 2016, dated 2021).
Square brackets hold non-standard residues; d marks the D form. Ends that are not written are not given here. pT = C[C@@H](OP(=O)(O)O)[C@H](N)C(=O)O

Columns and labels:
Tau-P301L dementia mice [1] = assay: Water maze test; format: in vivo; conditions: 5th day, platform removed; ranking after K280-ac
Protocol: (§1) JNPL3 mice expressing Tau-P301L mutant gene were purchased from Taconic, and back-crossed with C57bl/6 mice for five generations in the experimental animal room of the Asan Institute for Life Sciences. Then, the mice were raised under a specific pathogen free (SPE) condition. For active immunization, the mice were administered, for six months starting from three months after birth at intervals of two weeks, two weeks, four weeks, four weeks, five weeks, four weeks, and one week in this order, the four modified tau protein fragments prepared in Preparation Example 1 together with keyhole limpet hemocyanin (KLH) as a carrier and an aluminum adjuvant. At this time, administration was carried out through intraperitoneal injection (IP injection). The dementia mice which were actively immunized by administration of the K280-ac fragment were designated as Tau-P301L-K280-ac.
An underwater maze test was performed to evaluate a learning and memory ability of the mice. […] Specifically, the underwater maze test took a total of 5 days. The mice were trained for 4 days in a state where a platform and a visual cue for the platform location are placed.
The learning was conducted by filling a swimming pool (1.4 m in diameter, 45 cm in depth) having a platform with water (29±0.5° C.) to a depth of about 26.5 cm, and then 1.5 L of whole milk powder was added to make water cloudy so that the mice can remember the platform with the cue only. Then, the mice were adapted to freely swim for 60 seconds and allowed to rest on the platform for 1 minute. The experiment was performed over a total of 12 times with 4 sets at three different starting positions. At the end of each test, 30 seconds of break time was given. At the end of one set, 30 to 45 minutes of break time was given.
After 4 days of learning, the test was performed on the 5th day. In the experiment for evaluation, the platform was not placed, and the number of staying in the area where the platform has been placed was measured in order to identify whether the mice visit well the platform location using the cue only. The test time was set for the mice to arrive at the location where the platform had been placed within one minute. If the mice fail to arrive at the platform location within one minute, the mice were removed out of the swimming pool.

Tau-P301L dementia mice [2] = assay: ELISA using plasma: antibody production against modified tau protein fragments; format: in vivo; conditions: ELISA using plasma after final administration; fragment with KLH and aluminum adjuvant, IP
Protocol: as §1
In order to identify whether antibodies against the four modified tau protein fragments prepared in Preparation Example 1 were produced, the respective modified tau protein fragments or the full-length tau protein was finally administered, and then ELISA was performed using plasma.

Glu391: protein fragment having the 381st to 391st amino acid sequence section of the tau protein in which the C-terminus of the 391st amino acid is truncated (NAKAKTDHGAE)
number of arrivals, ranking among fragments (Tau-P301L dementia mice [1]): next highest increased number of arrivals
antibodies against the fragment produced (Tau-P301L dementia mice [2]): well produced

VQIVYK-ac: protein fragment having the 303rd to 316th amino acid sequence section of the tau protein in which the 306th to 311th amino acids are acetylated (GGSVQIVYKPVDLS; also: residues 306-311 (VQIVYK) acetylated; listed as Homo sapiens)
number of arrivals, ranking among fragments (Tau-P301L dementia mice [1]): next highest increased number of arrivals
antibodies against the fragment produced (Tau-P301L dementia mice [2]): not well produced

pT231: protein fragment having the 226th to 236th amino acid sequence section of the tau protein in which the 231st amino acid is phosphorylated (VAVVR[pT]PPKSP)
number of arrivals, ranking among fragments (Tau-P301L dementia mice [1]): lowest number of times to arrive at the platform
antibodies against the fragment produced (Tau-P301L dementia mice [2]): well produced
